Our source for the GI50 and TGI values is PubChem BioAssay (NCI).

In general, GI50 refers to the concentration that inhibits growth by half. The term TGI denotes the concentration at which net growth stops. Read a low TGI as greater sensitivity of the cells.

Holding throughout (test): DTP human tumour cell line panel, 48 h
In experiment [1] the test system is MOLT-4 leukemia.
Experiment [2] has as its system MDA-MB-435.
Experiment [3] relates to HCT-15 colon.
Experiment [4] deals with UACC-257 melanoma.
Experiment [5] has as its system HOP-62 NSCLC.
For experiment [6], the system named is UACC-62 melanoma.
Experiment [7] deals with KM12 colon.
Experiment [8] concerns SK-MEL-5 melanoma.
Experiment [9] deals with 786-0 renal.
Experiment [10] relates to SF-268 CNS.

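Each compound was tested at five concentrations against cells in 96-well plates for 48 hours. GI50 marks 50% less growth. At the TGI there is no net growth.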

Turning to `CCOC(=O)C(=Cc1c(-c2ccccc2)[nH]c2ccccc12)C(=O)OCC`, the GI50 in experiment [1] is 3.81 µM; in experiment [2], 3.36 µM; in experiment [3], 4.07 µM; in experiment [4] it was 7.33 µM; in experiment [5], 4.27 µM; in experiment [6], 4.64 µM. For the same molecule, the GI50 in experiment [7] was 3.51 µM; in [8] it was 3.81 µM; in experiment [9], 11.7 µM; in [10] it was 7.46 µM. The concentration for total growth inhibition (TGI) in [1] came out at 18.8 µM; in [2], 13.6 µM; in experiment [3], 38.4 µM; in [4], 19.3 µM; in [5] it was 14.1 µM; in experiment [6], 21.7 µM. In addition, the TGI in experiment [7] was 12 µM; in [8] it was 14.2 µM; in [9], 37.2 µM; in [10] it was 28.5 µM.

On to `N=C(N)SCC(=O)O`, for which the TGI in experiment [1], in experiment [2], in [3], in [4], in experiment [5] and in experiment [6] was above 100 µM in each case. Besides, the TGI in experiment [7], in experiment [8], in [9] and in experiment [10] was above 100 µM throughout.

In the case of `CCCCCCCCCCCCNC(=O)[C@H]1CSC(c2ccsc2)N1` (some centres undefined), the GI50 in experiment [1] is 0.895 µM; in [2] it was 0.68 µM; in experiment [3], 0.883 µM; in experiment [4] it was 0.946 µM; in experiment [5] it was 0.873 µM; in experiment [6] it was 0.929 µM. For the same molecule, the GI50 in experiment [7] was 0.868 µM; in experiment [8] it was 1.36 µM; in experiment [9] it was 0.916 µM; in experiment [10], 0.613 µM. Further, the total growth inhibition concentration (TGI) in experiment [1] worked out at 1.84 µM; in experiment [2] it was 1.35 µM; in [3], 1.69 µM; in experiment [4], 1.7 µM; in experiment [5], 1.62 µM; in [6] it was 1.82 µM. For the same molecule, the TGI was found to be 1.64 µM in experiment [7], 5.22 µM in experiment [8], 1.65 µM in experiment [9] and 1.45 µM in experiment [10].

On to `N#CC1=C(N)Oc2c(sc3c(Br)cccc23)C1c1ccc(F)cc1` (centres undefined), for which the GI50 in experiment [1] was 0.473 µM; in experiment [2] it was 0.0691 µM; in experiment [3] it was 0.39 µM; in [4], 13 µM; in [5] it was 0.354 µM; in [6] it was 0.512 µM. For the same molecule, the GI50 is 0.361 µM in experiment [7], 0.371 µM in experiment [8], 0.525 µM in experiment [9] and 1.75 µM in experiment [10]. The TGI in [1] came to 14.2 µM; in experiment [2], 11.2 µM; in [3], 11.4 µM; in experiment [4], 42.7 µM; in experiment [5], 17.9 µM; in [6] it was 23.5 µM. In addition, the TGI in experiment [7] came to 15.2 µM; in experiment [8] it was 12.9 µM; in experiment [9] it was 14.2 µM; in [10], 24.2 µM.

Consider `NC1(C(=O)O)CSSC1`, for which the GI50 in experiment [1] was 5.61 µM; in [2], 3.54 µM; in [3], 3.88 µM; in experiment [4], 3.85 µM; in experiment [5], 2.92 µM; in experiment [6] it was 4.53 µM. Moreover, the GI50 is 11.9 µM in experiment [7], 1.91 µM in experiment [8], 21.6 µM in [9] and 7.6 µM in [10]. In addition, the TGI in experiment [1] is above 100 µM; in experiment [2], 13.9 µM; in experiment [3], 84.7 µM; in experiment [4], 22.7 µM; in experiment [5] it was 9.83 µM; in experiment [6] it was 20.1 µM. Besides, the TGI in [7] is 80.9 µM; in [8], 3.68 µM; in [9] it was above 100 µM; in experiment [10], above 100 µM.

For `O=C(Nc1nc2ccc(F)cc2s1)c1cccnc1Nc1ccc(Cl)cc1Cl`, the GI50 in [1] is 2.35 µM; in experiment [2], 3.04 µM; in [3], 3.35 µM; in experiment [4], 0.753 µM; in experiment [5], 3.05 µM; in experiment [6], 2.57 µM. Further, the GI50 in [7] was 2.78 µM; in experiment [8], 1.87 µM; in experiment [9], 3.28 µM; in experiment [10], 3.34 µM. Besides, the TGI in [1] stood at 17.3 µM; in experiment [2] it was 14.3 µM; in experiment [3] it was 20.3 µM; in [4], 7.73 µM; in experiment [5], 12.8 µM; in [6], 17.2 µM. Also, the TGI stood at 9.54 µM in experiment [7], 6.11 µM in experiment [8], 12.2 µM in experiment [9] and 16.3 µM in [10].

With `O=C(O)C(O)c1ccc(F)cc1` (centres undefined), the concentration for total growth inhibition (TGI) in experiment [1], in experiment [2], in experiment [3], in experiment [4], in experiment [5] and in experiment [6] was above 100 µM in each case. In addition, the concentration for total growth inhibition (TGI) in experiment [7], in experiment [9] and in experiment [10] was above 100 µM in each case.

For the molecule `CC(=O)Nc1ccc2c(c1)CN1C(=O)c3ccccc3C1=N2`, the GI50 in experiment [1], in experiment [2], in [3], in experiment [4], in experiment [5] and in experiment [6] was above 100 µM throughout. Moreover, the GI50 in experiment [7], in experiment [8], in experiment [9] and in experiment [10] was above 100 µM throughout. For the same molecule, the TGI in [1], in experiment [2], in experiment [3], in [4], in [5] and in [6] was above 100 µM each time. Besides, the TGI in [7], in experiment [8], in experiment [9] and in [10] was above 100 µM in each case.
